Experimental findings from PubChem BioAssay (NCI) are described below.

SMILES strings stand for the structures. Where “and” joins values, the source holds several entries; their conditions need not be identical. Identical values can stand only once.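 Cultured in 96-well plates, cells were exposed to test compound for 48 hours across five concentrations. GI50 marks 50% less growth. TGI is the concentration that stops growth completely.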

Holding throughout (assay): NCI-60 cell line screen, 48 h
Assay [1] concerns SNB-75 CNS.
Assay [2] concerns OVCAR-8 ovarian.
Assay [3] relates to NCI-H23 lung.
In assay [4] the test system is T-47D breast.
In assay [5] the test system is MDA-MB-231 breast.
The subject of assay [6] is HOP-92 NSCLC.
The subject of assay [7] is MOLT-4 leukemia.
The subject of assay [8] is SK-MEL-28 melanoma.
Assay [9] relates to UACC-257 melanoma.
The subject of assay [10] is 786-0 renal.

For the compound `O=C(O)C(=O)CBr`, the GI50 in assay [1] is > 100 µM and 25.2 µM; in [2] it was > 43.4 µM and 19.5 µM; in assay [3] it was > 48.4 µM and 19.9 µM; in assay [4], > 100 µM and 25.5 µM; in assay [5] it was more than 100 µM; in [6], > 33.2 µM and 19.1 µM. Also, the GI50 in assay [7] is > 40.6 µM and 21.9 µM; in assay [8], > 42.4 µM and 16.6 µM; in [9] it was > 78.3 µM and 18.4 µM; in [10] it was 16.9 µM and 21.7 µM. Besides, the TGI in [1] is > 100 µM and 60.3 µM; in assay [2], > 59.7 µM and 36.7 µM; in assay [3], > 74 µM and 39.5 µM; in [4] it was > 100 µM and 64.7 µM; in assay [5], more than 100 µM; in assay [6], > 49.9 µM and 34 µM. For the same compound, the TGI in assay [7] was > 72.9 µM and 51.9 µM; in [8], > 62.8 µM and 32.2 µM; in [9] it was > 100 µM and 33.6 µM; in [10] it was 31.3 µM and 36.5 µM.
Consider `Cc1cc(S(=O)(=O)Nc2nc3cc(Cl)ccc3o2)c(SCc2ccccc2)cc1Cl`, for which the GI50 is 26.1 µM in [1]; 4.18 µM in [2]; 26.5 µM in [3]; 17.8 µM in [4]; 24.2 µM in assay [5]; 18.7 µM in [6]. For the same compound, the GI50 in [7] was 37.8 µM; in [8], 27.3 µM; in assay [9] it was 18.4 µM; in [10], 20.1 µM. The TGI in assay [1] was 62.2 µM; in assay [2] it was 26.1 µM; in [3] it was 54.2 µM; in [4] it was 39.7 µM; in assay [5] it was 50.7 µM; in assay [6], 39.1 µM. Moreover, the TGI was more than 100 µM in assay [7], 75.1 µM in assay [8], 38.4 µM in assay [9] and 38 µM in assay [10].
As for `CCCCOc1ccc(/C=N/Nc2cc(C)nc3ccc(Cl)cc23)cc1`, the GI50 is 1.75 µM in [1]; 1.78 µM in [2]; 1.77 µM in [3]; 1.73 µM in assay [4]; 1.74 µM in assay [5]; 1.43 µM in assay [6]. Also, the GI50 in assay [7] was 1.7 µM; in [8], 1.66 µM; in [9], 1.61 µM; in assay [10], 2 µM. Besides, the TGI in [1] is 3.33 µM; in assay [2] it was 3.46 µM; in [3], 3.42 µM; in assay [4] it was 3.77 µM; in assay [5], 3.25 µM; in assay [6], 2.99 µM. Further, the TGI in [7] worked out at 3.61 µM; in [8], 3.08 µM; in assay [9], 3.11 µM; in assay [10], 3.76 µM.
Turning to `CC(=O)N1CCN(CCOc2ccc(C3CCN(C4=Nn5c(nnc5C(F)(F)F)CC4)CC3)cc2)CC1`, the GI50 was 3.12 µM in assay [1]; 36 µM in assay [2]; 11.4 µM in assay [3]; 5.21 µM in assay [4]; 7.83 µM in assay [5]; 7.64 µM in [6]. Moreover, the GI50 is 27 µM in [7], 21.4 µM in assay [8], 26 µM in assay [9] and 25.1 µM in assay [10]. Also, the TGI in assay [1], in assay [2], in assay [3], in [4], in assay [5] and in assay [6] was more than 100 µM throughout. The TGI in [7], in [8], in assay [9] and in assay [10] was more than 100 µM each time.
As for `CCCn1c(N)c(C(=O)CNc2ccc(I)cc2)c(=O)[nH]c1=O`, the GI50 in assay [1] is 2.12 µM; in assay [2], 4.72 µM; in assay [3] it was more than 61.4 µM; in assay [4], more than 100 µM; in assay [5] it was 24.5 µM; in assay [6], 7.86 µM. Moreover, the GI50 in [7] is 0.422 µM; in [8], more than 100 µM; in assay [10], 4.21 µM. Besides, the TGI in assay [1] was more than 40.1 µM; in [2], more than 100 µM; in assay [3] it was more than 100 µM; in assay [4], more than 100 µM; in assay [5], more than 100 µM; in assay [6], more than 24.3 µM. For the same compound, the TGI in assay [7], in assay [8], in assay [9] and in assay [10] was more than 100 µM each time.
